The target in one data set is N-terminal CA (N-CA) (Human immunodeficiency virus type 1 group M subtype B, UniProt P04591). The following applies: read-out: affinity (Kd) to N-terminal CA (N-CA); cited from earlier work.
A short description of data set [1]: Circular dichroism, secondary structure in solution. Type of data set: physicochemical. The following applies: 20° C., Tris-HCl buffer pH 8.0, 1-15% acetonitrile. As to the method:
We used circular dichroism (CD) to characterize the secondary structure of NYAD-1 and CAI in the uncomplexed state in solution. CD spectra were obtained on a Jasco J-715 Spectropolarimeter (Jasco Inc.) at 20° C. using the standard measurement parameters in Tris-HCl buffer (20 mM Tris, pH 8.0) in the presence of 1-15% (v/v) acetonitrile at a final concentration of 125-500 μM. In all the samples, the final concentrations of peptides and salt were always the same, and the spectra were corrected by subtracting the CD spectra of the appropriate reference solvent. Percent α-helix was calculated from molar ellipticity value at 222 nm.
The CD spectra were measured at 25° C. in 1×PBS in the presence of 1-20% (v/v) acetonitrile at a final concentration of peptide of 100 μM.
We used CD spectroscopy to determine the secondary structure characteristics of the stapled peptide NYAD-36. The corresponding linear peptide, NYAD-41, was used as control.
For orientation: CD spectra are sensitive to the conformation of chiral molecules.

Data set [2] addresses T1, C-terminal CA (C-CA) of capsid (Human immunodeficiency virus type 1 group M subtype B, UniProt P04591).
T1 construct: targeting the C-terminal CA (C-CA) of capsid
The following applies: estimated, read-out: dissociation constant (Kd); cited from earlier work.

As to `Cc1ccc(NC(=O)NCCSCc2ccc(CN(C)C)o2)cc1Cl` [CAP-1], the Kd – broadly, the free concentration of one partner at which half of the binding sites on the other are occupied at equilibrium, for simple one-to-one binding – at N-terminal CA (N-CA) is roughly 800 µM.

Regarding ITFEDLLDYYGP [CAI], the “secondary structure in solution by CD” value in data set [1] was “random coil structure”. For the same molecule, the equilibrium dissociation constant (Kd) in data set [2] was roughly 15 µM.

Values taken from patent US8937154B2, “Stabilized therapeutic small helical antiviral peptides” (priority 2006, dated 2015).
